Data reported in patent publication US5958981A, “γ-diketone compounds with inhibitory activity against platelet aggregation” (Meiji Seika Kabushiki Kaisha, priority 1994, dated 1999).
Counter-ions that a name gives are not always drawn.

Tested on: human PRP (platelet rich plasma), platelet aggregation
Assay: Inhibitory activity against ADP-induced platelet aggregation in human PRP (platelet rich plasma)
Type: cell-based
Details: aggregation inducer ADP final concentration 5 μM, preincubated 2 min
Method: Pharmacological Test: Inhibitory activity against platelet aggregation
The inhibitory activity of the compound according to the present invention against platelet aggregation was examined with human PRP (platelet rich plasma).
Nine volumes of a blood sample was taken out of the vein of a normal human with a syringe in which one volume of a 3.8% sodium citrate solution was charged. The blood sample was centrifuged at 170×g at room temperature for 10 min. The supernatant thus obtained was isolated as PRP. The residual blood sample that PRP had been taken out was centrifuged at 2,700×g for 15 minutes. The supernatant was then taken as platelet poor plasma (PPP).
A platelet aggregation test was conducted with an aggligometer (PAM-8C, manufactured by MEBANICKS Co., Ltd.). Compounds under test were dissolved in a 50% DMSO saline, a 50% methanol saline, or physiological saline. The compound under test and PRP were preincubated for 2 min. An aggregation inducer ADP (CHRONO-PAR REAGENTS 384 ADP, CHRONO-LOG Corp.) was used in the form of a dilution with saline so that the final concentration is 5 μM.
The anti-platelet aggregation activity was determined as an inhibition rate to platelet aggregation effect of ADP in the absence of a compound under test as follows. [formula]

| Structure (SMILES) | IC50 [nM] |
| --- | --- |
| N=C(N)c1ccc(C(=O)CCC(=O)c2ccc(OCC(=O)O)c(OCC(=O)O)c2)cc1 [Example 3, [[4-[4-(4-Amidinophenyl)-1,4-dioxobutan-1-yl]-1,2-phenylene]dioxy]diacetic acid trifluoroacetate] | 17 |
| N=C(N)c1ccc(C(=O)CCC(=O)c2ccc(OCC(=O)O)cc2)cc1 [Example 6, 4-[4-(4-Amidinophenyl)-1,4-dioxobutan-1-yl]phenoxyacetic acid hydrochloride] | < 100 |
| CCCCOC(=O)COc1ccc(C(=O)CCC(=O)c2cc3c(s2)CCNC3)cc1OCC(=O)OCCCC [Example 2, Di-n-butyl [[4-[1,4-dioxo-4-(4,5,6,7-tetrahydrothieno[3,2-c]pyridin-2-yl)butan-1-yl]-1,2-phenylene]dioxy]diacetate hydrochloride] | 2000 |
| CCCCOC(=O)COc1ccc(C(=O)CCC(=O)c2ccc(C(=N)N)cc2)cc1OCC(=O)OCCCC [Example 4, Di-n-butyl [[4-[4-(4-amidinophenyl)-1,4-dioxobutan-1-yl]-1,2-phenylene]dioxy]diacetate trifluoroacetate] | 23 |
| O=C(O)COc1ccc(C(=O)CCC(=O)c2cc3c(s2)CCNC3)cc1OCC(=O)O [Example 1, [[4-[1,4-Dioxo-4-(4,5,6,7-tetrahydrothieno[3,2-c]pyridin-2-yl)butan-1-yl]-1,2-phenylene]dioxy]diacetic acid trifluoroacetate] | 130 |
| CCCCOC(=O)COc1ccc(C(=O)CCC(=O)c2ccc(C(=N)N)cc2)cc1 [Example 5, n-Butyl 4-[4-(4-amidinophenyl)-1,4-dioxobutan-1-yl]phenoxyacetate hydroiodide] | 43 |
